Ends that are not written are not given here.
Legend:
BRIN-BD11 cells = assay: Insulin secretion from BRIN-BD11 cells; type: cell-based; details: for Maximal insulin response (% GIP max) / Insulin response in presence of 10^-7 M GIP (% GIP max): 5.6 mm glucose; for Maximal insulin response (% GIP max): 20 min; for Insulin response in presence of 10^-7 M GIP (% GIP max): in presence of 10^-7 M native GIP; for effect on GIP-stimulated insulin secretion: in presence of GIP (10^-7 m)
Protocol: (§1) Tissue Culture. Chinese Hamster Lung (CHL) fibroblast cells stably transfected with the human GIP-R were cultured in DMEM tissue culture medium containing 10%. (v/v) fetal bovine serum, 1% (v/v) antibiotics (100 U/ml penicillin, 0.1 mg/ml streptomycin) (all from Gibco, Paisley, Strathclyde, Scotland). BRIN-BD11 cells were cultured in RPMI-1640 tissue culture medium containing 10% (v/v) fetal bovine serum, 1% (v/v) antibiotics (100 U/ml penicillin, 0.1 mg/ml streptomycin) and 11.1 mm glucose. The origin and secretory characteristics of these cells have been described in detail previously (McClenaghan, N. H. et al., 1996, Diabetes 45:1132-1140). The cells were maintained in sterile tissue culture flasks (Corning Glass Works, Sunderland, UK) at 37° C. in an atmosphere of 5% CO2 and 95% air using a LEEC incubator (Laboratory Technical Engineering, Nottingham, UK).
Methods. Insulin release from BRIN-BD11 cells was determined by use of cell monolayers as described previously (Gault, V. A. et al. 2002, Biochem. J. 367:913-920). In brief, BRIN-BD11 cells were seeded into 24-well plates (Nunc, Roskilde, Denmark) at a density of 1.5×10^5 cells per well and allowed to attach overnight in RPMI-1640 culture medium at 37° C. Acute tests for insulin secretion were preceded by 40 minutes pre-incubation at 37° C. in 1.0 ml Krebs Ringer Bicarbonate Buffer (KRBB, 115 mm NaCl, 4.7 mm KCl, 1.28 mm CaCl2, 1.2 mM MgSO4, 1.2 mm KH2PO4, 25 mM HEPES and 10 mm NaHCO3; pH 7.4 with NaOH) supplemented with 0.1% (w/v) BSA and 1.1 mM glucose. […] After 20 minutes incubation, the buffer was removed and used for measurement of insulin by radioimmunoassay (Flatt, P. R. and Bailey, C. J., 1981, Diabetologia 5:573-577).

DPP-IV = DPP-IV (Homo sapiens, UniProt P27487); assay: Degradation of GIP and Glu3-substituted GIP analogs by DPP-IV (HPLC); type: in vitro ADME; details: for half-life at 2 μm: DPP-IV enzyme (5 mU) in buffer, pH 7.8, incubation with DPP-IV, unit not given (time points in hrs), read-out: Estimated Half-Life (converted); for Intact Peptide Remaining (%) 0 hrs. / remaining at 2 h, 2 μm / remaining at 4 h, 2 μm / remaining at 8 h, 2 μm: incubation with DPP-IV (5 mU), 37°C; for Intact Peptide Remaining (%) 0 hrs.: pH 7.8, 0 hrs; for remaining at 2 h, 2 μm / remaining at 4 h, 2 μm / remaining at 8 h, 2 μm: isolated DPP-IV enzyme (5 mU); for remaining at 2 h, 2 μm: pH 7.8, 2 hrs, read-out: Intact Peptide Remaining (%) 2 hrs.; for remaining at 4 h, 2 μm: pH 7.8, 4 hrs, read-out: Intact Peptide Remaining (%) 4 hrs.; for remaining at 8 h, 2 μm: pH 7.8, 8 hrs, read-out: Intact Peptide Remaining (%) 8 hrs.; for resistance to DPP-IV degradation: words, up to 8 hours incubation
Sequence of DPP-IV (P27487 whole entry, species assumed): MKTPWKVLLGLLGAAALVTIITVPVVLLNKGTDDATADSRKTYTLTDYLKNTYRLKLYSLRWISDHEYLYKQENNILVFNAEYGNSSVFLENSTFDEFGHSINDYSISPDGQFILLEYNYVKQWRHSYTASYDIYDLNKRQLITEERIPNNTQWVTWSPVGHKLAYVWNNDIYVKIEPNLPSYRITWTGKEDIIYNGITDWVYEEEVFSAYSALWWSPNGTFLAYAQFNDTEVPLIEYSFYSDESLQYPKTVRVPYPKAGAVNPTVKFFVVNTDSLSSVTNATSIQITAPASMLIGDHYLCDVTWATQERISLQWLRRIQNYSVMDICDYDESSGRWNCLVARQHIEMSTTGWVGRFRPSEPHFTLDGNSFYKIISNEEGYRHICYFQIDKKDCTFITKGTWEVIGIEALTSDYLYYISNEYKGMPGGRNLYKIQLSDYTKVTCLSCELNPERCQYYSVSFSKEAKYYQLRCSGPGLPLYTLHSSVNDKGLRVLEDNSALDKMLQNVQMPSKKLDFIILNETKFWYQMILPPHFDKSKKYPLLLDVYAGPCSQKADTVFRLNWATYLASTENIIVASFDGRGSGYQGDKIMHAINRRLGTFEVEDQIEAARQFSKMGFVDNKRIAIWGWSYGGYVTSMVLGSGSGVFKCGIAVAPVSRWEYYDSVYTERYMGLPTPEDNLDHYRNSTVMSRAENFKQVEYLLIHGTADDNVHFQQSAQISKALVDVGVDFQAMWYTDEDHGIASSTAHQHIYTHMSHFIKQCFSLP

human GIP-R = biological target: T1, human GIP-R (Homo sapiens, UniProt P48546); assay: Cyclic AMP production in GIP-R transfected CHL cells; type: cell-based; details: for remaining activity at 0.1 µM: CHL, read-out: cAMP response in presence of 10^-7 M GIP (% GIP max); for inhibition of GIP-stimulated cAMP production: in presence of GIP (10^-7 m)
T1 construct: expressed in transfected cells; host or cells: Chinese Hamster Lung (CHL) fibroblast cells, stably transfected
T1 sequence (P48546 22-466): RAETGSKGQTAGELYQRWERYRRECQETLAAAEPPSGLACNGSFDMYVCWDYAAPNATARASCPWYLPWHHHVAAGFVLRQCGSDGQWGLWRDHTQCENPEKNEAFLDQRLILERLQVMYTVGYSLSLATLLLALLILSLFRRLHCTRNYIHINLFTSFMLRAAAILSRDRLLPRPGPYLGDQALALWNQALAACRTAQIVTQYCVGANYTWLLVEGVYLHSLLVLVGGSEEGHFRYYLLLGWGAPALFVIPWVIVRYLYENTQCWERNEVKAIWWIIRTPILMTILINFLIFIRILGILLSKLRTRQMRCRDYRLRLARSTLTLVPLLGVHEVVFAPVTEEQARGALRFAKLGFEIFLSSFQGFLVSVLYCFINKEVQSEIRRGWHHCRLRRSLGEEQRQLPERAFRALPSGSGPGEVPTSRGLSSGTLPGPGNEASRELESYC
Protocol: as §1, with “Chinese Hamster Lung (CHL) fibroblast cells stably transfected with the human GIP-R were cultured in DMEM tissue culture medium containing 10%.” left out
Methods. […] The culture medium was removed and cells subsequently washed twice with 2 ml ice-cold HBS buffer (130 mm NaCl, 20 mm HEPES, 0.9 mm NaHPO4, 0.8 mm MgSO4, 5.4 mm KCl, 1.8 mm CaCl2, 5.6 mm glucose and 25 μm phenol red) (pH 7.4). […] The medium was subsequently removed and the cells lysed with […] of lysing solution (5% TCA, 3% SDS, 92% H2O, also containing 0.1 mm unlabelled cAMP and 0.1 mm unlabelled ATP) (Sigma, Poole, Dorset, UK). The plates were then left on a shaker at room temperature for 30 minutes and tritiated cAMP formation determined by column chromatography using Dowex and alumina ion exchange columns (BioRad Life Science Research, Alpha Analytical, Larne, UK) as previously described (Gault, V. A. et al 2002, Biochem. J. 367:913-920).

ob/ob mice = assay: Acute antihyperglycaemic and insulin releasing activity with glucose and native GIP in ob/ob mice; type: in vivo, mouse; details: for plasma glucose and insulin profiles when administered together with native GIP: 25 nmol/kg i.p. with GIP and glucose 18 mmol/kg, vs native GIP
Protocol: Animals. Obese diabetic (ob/ob) mice derived from the colony maintained at Aston University, UK (Bailey C. J. et al., 1982, Int. J. Obes. 6:11-21) were used at 14-18 weeks of age. Animals were age-matched, divided into groups and housed individually in an air-conditioned room at 22±2° C. with a 12 hour light: 12 hour dark cycle (08:00-20:00 hr). Drinking water and a standard rodent maintenance diet (Trouw Nutrition, Cheshire, UK) were freely available. All animal experiments were carried out in accordance with the UK Animals (Scientific Procedures) Act 1986.
Biochemical analysis. Plasma glucose was assayed by an automated glucose oxidase procedure ([…]) using a Beckman Glucose Analyzer II (Beckman Instruments, Galway, Ireland). Plasma insulin was assayed by radioimmunoassay.
Methods. […] All test solutions were administered in a final volume of 5 ml/kg body weight. Blood samples were collected from the cut tip of the tail vein of conscious mice into chilled fluoride/heparin coated glucose microcentrifuge tubes (Sarstedt, Numbrecht, Germany) immediately prior to injection and at 15, 30 and 60 minutes post injection. Blood samples were immediately centrifuged using a Beckmnan microcentrifuge (Beckman Instruments, High Wycombe, Buckinghamshire, UK) for 30 seconds at 13,000×g. Plasma glucose was assayed using a Beckman Glucose Analyzer n (Beckman Instruments, High Wycombe, Buckinghamshire, UK) (Stevens, J. F., 1971, Clin. Chim. Acta 32:199-201) and plasma insulin was determined by RIA (Flatt, P. R. and Bailey, C. J., 1981, Diabetologia 5:573-577). All animal studies were carried out in accordance with the UK Animals (Scientific Procedures) Act 1986.

Compound	Maximal insulin response (% GIP max) (BRIN-BD11 cells; BRIN-BD11 cells)	Insulin response in presence of 10^-7 M GIP (% GIP max) (BRIN-BD11 cells; BRIN-BD11 cells)	effect on GIP-stimulated insulin secretion (BRIN-BD11 cells)	half-life at 2 μm (DPP-IV)	Intact Peptide Remaining (%) 0 hrs. (DPP-IV)	remaining at 2 h, 2 μm (DPP-IV)	remaining at 4 h, 2 μm (DPP-IV)	remaining at 8 h, 2 μm (DPP-IV)	EC50 (human GIP-R)	remaining activity at 0.1 µM (human GIP-R)	inhibition of GIP-stimulated cAMP production (human GIP-R)	plasma glucose and insulin profiles when administered together with native GIP (ob/ob mice)	stimulation of insulin secretion compared with control incubations (BRIN-BD11 cells; BRIN-BD11 cells, vs 5.6 mm glucose alone)	resistance to DPP-IV degradation (DPP-IV)	glycaemic excursion and insulin response (ob/ob mice; compared with i.p. glucose alone)
YAFGTFISDYSIAMDKIHQQDFVNWLLAQKGKKNDWKHNITQ [(Phe^3)GIP]	75 ± 3 % GIP max	73 ± 3 % GIP max	significantly inhibited	1.2 h	100%	15 ± 5.2%	2.5 ± 0.1%	0%	1 nM	62 ± 3%	significantly inhibited	significantly inhibited the action of GIP			
YAAGTFISDYSIAMDKIHQQDFVNWLLAQKGKKNDWKHNITQ [(Ala^3)GIP]	111 ± 6 % GIP max	115 ± 3 % GIP max	did not significantly affect	1.1 h	100%	5.9 ± 1.7%	2.7 ± 0.1%	0%	2.3 nM	88 ± 3%	did not significantly inhibit	significantly inhibited the action of GIP	1.7 fold	least resistant	
CC[C@H](C)[C@H](NC(=O)[C@H](CO)NC(=O)[C@H](Cc1ccc(O)cc1)NC(=O)[C@H](CC(=O)O)NC(=O)[C@H](CO)NC(=O)[C@@H](NC(=O)[C@H](Cc1ccccc1)NC(=O)[C@@H](NC(=O)CNC(=O)[C@H](CCC(=O)O)NC(=O)[C@H](C)NC(=O)[C@@H](N)Cc1ccc(O)cc1)[C@@H](C)O)[C@@H](C)CC)C(=O)N[C@@H](C)C(=O)N[C@@H](CCSC)C(=O)N[C@@H](CC(=O)O)C(=O)N[C@@H](CCCCN)C(=O)N[C@H](C(=O)N[C@@H](Cc1c[nH]cn1)C(=O)N[C@@H](CCC(N)=O)C(=O)N[C@@H](CCC(N)=O)C(=O)N[C@@H](CC(=O)O)C(=O)N[C@@H](Cc1ccccc1)C(=O)N[C@H](C(=O)N[C@@H](CC(N)=O)C(=O)N[C@@H](Cc1c[nH]c2ccccc12)C(=O)N[C@@H](CC(C)C)C(=O)N[C@@H](CC(C)C)C(=O)N[C@@H](C)C(=O)N[C@@H](CCC(N)=O)C(=O)N[C@@H](CCCCN)C(=O)NCC(=O)N[C@@H](CCCCN)C(=O)N[C@@H](CCCCN)C(=O)N[C@@H](CC(N)=O)C(=O)N[C@@H](CC(=O)O)C(=O)N[C@@H](Cc1c[nH]c2ccccc12)C(=O)N[C@@H](CCCCN)C(=O)N[C@@H](Cc1c[nH]cn1)C(=O)N[C@@H](CC(N)=O)C(=O)N[C@H](C(=O)N[C@H](C(=O)N[C@@H](CCC(N)=O)C(=O)O)[C@@H](C)O)[C@@H](C)CC)C(C)C)[C@@H](C)CC [GIP, reference compound]	100 % GIP max	100 % GIP max		1.3 h	100%	20.9 ± 1.6%	4.9 ± 1.2%	0%						complete degradation by 8 hours	decreased the glycaemic excursion and enhanced insulin response
YAWGTFISDYSIAMDKIHQQDFVNWLLAQKGKKNDWKHNITQ [(Trp^3)GIP]	73 ± 2 % GIP max	100 ± 5 % GIP max	did not significantly affect	1.3 h	100%	22.5 ± 1.7%	4.7 ± 2.4%	0%	3 nM	78 ± 2%	did not significantly inhibit	did not significantly alter			
YAKGTFISDYSIAMDKIHQQDFVNWLLAQKGKKNDWKHNITQ [(Lys^3)GIP]	78 ± 3 % GIP max	78 ± 4 % GIP max	significantly inhibited	1.7 h	100%	41.4 ± 0.3%	14.9 ± 1.1%	0%	2.6 nM	63.5 ± 4%	significantly inhibited	did not significantly alter		significantly more resistant	

Reference: patent publication US20090170762A1, “Treatment of Diabetes Related Obesity” (UUTech Limited, priority 2005, published 2009)
